Source: patent publication US5686466A, “Tricyclic condensed heterocyclic compounds their production and use” (priority 1993, dated 1997)
Where a name gives a salt, the structure may show the parent alone.

Assays:
[1] = background art; cited from earlier work
[2] = system: [3H]-serotonin (5-HT) uptake; experiment: monoamine uptake inhibition, [3H]-serotonin (5-HT), crude synaptosomal preparations of cerebral cortex and hippocampus; format: biochemical; settings: [^3 H]-HT 10 nM; 37° C; rat synaptosomes; read-out: Monoamine Reuptake Inhibitory Activity IC50, 5-HT
Description: (§1) Effects of the compound of this invention on monoamine uptake were investigated using [^3 H]-norepinephirine(NE) and [3H]-serotonin (5-HT). Rats were sacrificed by decapitation. The cerebral cortex and hippocampus were removed and homogenized in 10-15 volumes (W/V) of an ice-cold medium containing 0.32M sucrose. Crude synaptosomal preparations (P2) were isolated after differential centrifugation at 1000×g for 10 min and 20,000×g for 30 min at 4° C. Synaptosomal membranes were suspended in Krebs-Ringer bicarbonate (KRB) solution (116 mM NaCl, 4.8 mM KCl, 1.3 mM CaCl2, 1.2 mM MgSO4, 1.2 mM NaH2 PO4, 25 mM NaHCO3, 0.1 mM EDTA-2Na, 11.1 mM D-glucose, 0.11 mM L-ascorbic acid, 0.01 mM pargyline). Synaptosomal membrane suspension (900 μl) was preincubated with the test compound dissolved in DMSO solution at 37° C. for 5 min. The reaction was initiated by addition of 100 μl of [^3 H]-NE (11 nM in final concentration) or [^3 H]-HT (10 nM in final concentration). Five minutes later, the reaction was stopped by the addition of 4 ml of ice-cold KRB and the reaction mixture was filtered through Whatman CF/B. Filters were washed twice with 4 ml of KRB and the radioactivity bound was counted with liquid scintillant. Imipramine was used as positive control.

[3] = system: [^3 H]-norepinephirine(NE) uptake; experiment: monoamine uptake inhibition, [^3 H]-norepinephirine (NE), crude synaptosomal preparations of cerebral cortex and hippocampus; format: biochemical; settings: [^3 H]-NE 11 nM; 37° C; rat synaptosomes; read-out: Monoamine Reuptake Inhibitory Activity IC50, NE
Description: as §1

Acetylcholinesterase = biological target: T1, Acetylcholinesterase (Rattus norvegicus, UniProt P37136); experiment: cholinesterase inhibitory activity using (acetyl-[^3 H])-acetylcholine, S1 fraction of rat cerebral cortex homogenate; format: biochemical, male Wistar rat; settings: 30 min incubation
T1 construct: Using the S1 fraction of a male Wistar rat cerebral cortex homogenate as a source of cholinesterase; from tissue; host or cells: male Wistar rat cerebral cortex homogenate, S1 fraction
T1 sequence (P37136 32-614): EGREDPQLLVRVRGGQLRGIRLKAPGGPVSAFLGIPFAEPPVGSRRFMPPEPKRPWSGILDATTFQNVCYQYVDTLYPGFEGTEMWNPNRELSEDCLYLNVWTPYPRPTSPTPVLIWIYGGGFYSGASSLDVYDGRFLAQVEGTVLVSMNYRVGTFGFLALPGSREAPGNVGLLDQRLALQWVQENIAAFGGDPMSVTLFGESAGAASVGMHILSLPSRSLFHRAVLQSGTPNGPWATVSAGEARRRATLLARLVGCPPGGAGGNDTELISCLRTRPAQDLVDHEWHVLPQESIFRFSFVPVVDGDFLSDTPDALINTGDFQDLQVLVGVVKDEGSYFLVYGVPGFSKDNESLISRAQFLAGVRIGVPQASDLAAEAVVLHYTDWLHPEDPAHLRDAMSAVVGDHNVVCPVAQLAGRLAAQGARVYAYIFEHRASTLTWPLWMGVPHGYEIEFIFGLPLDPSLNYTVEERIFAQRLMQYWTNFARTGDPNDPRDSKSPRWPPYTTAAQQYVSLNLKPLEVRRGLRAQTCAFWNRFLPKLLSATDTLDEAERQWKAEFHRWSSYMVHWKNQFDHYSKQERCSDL
Description: The cholinesterase inhibitory activity of the compound of the present invention was tested, using (acetyl-[^3 H])-acetylcholine. Using the S1 fraction of a male Wistar rat cerebral cortex homogenate as a source of cholinesterase, (acetyl-[^3 H])-acetylcholine, as a substrate, and the test compound, as a sample, were incubated for 30 minutes. After the reaction was terminated, a toluene scintillator was added and the reaction mixture was shaken to migrate the [^3 H]-acetic acid resulting from the reaction to the toluene layer, where radioactivity was counted using a liquid scintillation counter to determine the cholinesterase inhibitory activity.
The sample's cholinesterase inhibitory activity was expressed by 50% inhibitory concentration (IC50).

| SMILES | duration of action [1] | toxicity [1] | IC50 [2] [nM] | IC50 [3] [nM] | IC50 (Acetylcholinesterase) [nM] |
| --- | --- | --- | --- | --- | --- |
| CNC(=O)Oc1ccc2c(c1)[C@]1(C)CCN(C)[C@@H]1N2C [physostigmine] | short duration of action | strong toxicity |  |  |  |
| O=C(CCN1CCN(Cc2cccc(F)c2)CC1)c1cc2c3c(c1)CCN3C(=O)CC2 [30-25] |  |  | 11.7 | 1310 | 0.098 |
| O=C(CCN1CCN(Cc2ccccc2Cl)CC1)c1cc2c3c(c1)CCN3C(=O)CC2 [30-21] |  |  | 88.2 | 1540 | 3.6 |
| Cc1ccc(C)c(CN2CCN(CCC(=O)c3cc4c5c(c3)CCN5C(=O)CC4)CC2)c1 [30-27] |  |  | 79.8 | 559 | 188 |
| Cc1ccccc1CN1CCN(CCC(=O)c2cc3c4c(c2)CC(=O)N4CCC3)CC1 [compound 23, 8-[3-[4-[(2-Methylphenyl)methyl]-1-piperazinyl]-1-oxopropyl]-5,6-dihydro-4H-pyroro[3,2,1-ij]quinolin-2(1H)-one dihydrochloride] |  |  | 66.8 | 2430 | 61.4 |
